In PubChem BioAssay AID624344 (Sanford-Burnham Center for Chemical Genomics, 2012):
Activity calls are given as the source filed them. No rule for the calls is given here.

How the values were obtained:
[1] = NFkB reporter suppression in cystic fibrosis bronchial cells – cell-based, uHTS hits, panel, cytotoxicity readout, dose response (AID 624344); conditions: CF bronchial epithelial cells, PAF-induced NFkB reporter inhibition; with PAF, mean of runs
Cytotoxicity = assay: as above; conditions: CF bronchial epithelial cells, mean of runs

SMILES	IC50 [1]	IC50 (Cytotoxicity)
CC(NC(=O)OCc1ccccc1)C(=O)Oc1cc2oc(=O)cc(-c3ccccc3)c2cc1Cl (stereo not given)	1.34 µM	27.9 µM
C=CCN1c2ccccc2Sc2cnccc21	2.59 µM	40.6 µM
CC1CCN(CC(CS(=O)(=O)c2ccc([N+](=O)[O-])cc2)N2CCC(C)CC2)CC1 (stereo not given)	2.44 µM	3.57 µM
Nc1nccc(-c2ccc(-n3cnc4ccccc43)cc2)n1	2.13 µM	49.1 µM
COc1cccc(C(=O)N2C(C(C)C)COc3cc(Br)ccc3S2(=O)=O)c1 (stereo not given)	12 µM	24.7 µM
COc1cccc(-c2ccc3ncnc(NCc4cccnc4)c3c2)c1	1.23 µM	11.3 µM
C=C1C(=O)O[C@H]2C[C@H]1[C@@H](OC(C)=O)C/C(C)=C/CC/C(C)=C\CC[C@]2(C)O	2 µM	2.39 µM
COc1ccc(-c2cn[nH]c2-c2ccc(OCc3ccc([N+](=O)[O-])cc3)cc2O)cc1	4.72 µM	31.8 µM
CC1=C(C(=O)OCc2ccc3c(c2)OCO3)C(c2ccc(O)c([N+](=O)[O-])c2)NC(=O)N1 (stereo not given)	1.71 µM	> 79 µM (inactive)
CC(C)CNC(=O)c1coc(=O)c(Br)c1	4.35 µM	8.73 µM
CC(C)(C)C(=O)/C(=C/c1ccncc1)n1cncn1	2.22 µM	15.1 µM
Cc1ccc(-c2cc(C(=O)N(C)Cc3cnn(C)c3C)c3cc(Br)ccc3n2)cc1	5.57 µM	14.4 µM
N#CC(C#N)c1ccnc2ccccc12	3.17 µM	28.3 µM
O=C1N(c2ccccc2C(F)(F)F)O[C@]1(c1ccccc1)C1CCCCC1	10.7 µM	> 79 µM (inactive)
CCC1=Nc2cc(C(=O)NCc3ccco3)ccc2Sc2ccc(C)cc21	11.7 µM	57.9 µM (inactive)
Cc1ccc(S(=O)(=O)CC(CN2CCCCC2)N2CCCCC2)cc1 (stereo not given)	6.85 µM	33.3 µM
Cc1nn(-c2ccccc2)c(Cl)c1C(=O)N1CCN(c2ncnc3c2cnn3-c2ccccc2)CC1	3.18 µM	1.42 µM
O=C(Nc1ccccc1)c1cc2ccccc2c(=O)s1	5.4 µM	> 79 µM (inactive)
Cc1c(NC(=O)c2cc(-c3cccs3)nc3ccccc23)c(=O)n(-c2ccccc2)n1C	4.08 µM	8.78 µM
CN(C)c1ccnc2sc3c(=O)n(Cc4ccccc4)cnc3c12	1.27 µM	> 79 µM (inactive)

SMILES	IC50 [1]	IC50 (Cytotoxicity)
FC(F)(F)c1nnc2c(Sc3ccc(Cl)cc3)nc3ccccc3n12	0.859 µM	1.03 µM
Cc1ccc(Sc2c(C=O)c3ccccc3n2C)cc1	2 µM	18 µM
CC(=O)c1ccc(NC(=O)Nc2ccc3c(c2)N(C)C(=O)CS3)cc1	5.14 µM	29.2 µM
COc1ccc(-c2cc(=O)oc3cc(OC(=O)C4CCCCC4)ccc23)cc1	2.37 µM	> 79 µM (inactive)
COc1ccc(C2CNC(=O)C2)cc1OC1CCCC1 (stereo not given)	11.3 µM	40.7 µM
c1ccc2c(-c3cncc4ccccc34)cncc2c1	6.1 µM	56.9 µM (inactive)
COc1ccc(-n2nnnc2C(c2cccs2)N2CCC(n3c(=O)[nH]c4ccccc43)CC2)cc1 (stereo not given)	5.05 µM	14.2 µM
C=C1C(=O)[C@]23C[C@H]1CCC2[C@@]1(C)C(C[C@@H]3O)[C@](C)(C(=O)O)CC[C@@H]1O (stereo not given in full)	1.98 µM	13.1 µM
CCN(CC)CCN(C(=O)CCS(=O)(=O)c1ccccc1)c1nc2c(C)cc(C)cc2s1	5.98 µM	8 µM
CCN(CC(=O)Nc1ccc(OC)cc1)C(=O)c1cc(-c2cccs2)nn1-c1ccccc1	5.29 µM	7.56 µM
O=[N+]([O-])c1cc([N+](=O)[O-])c2oc(-c3ccccc3)c(Br)c2c1O	2.3 µM	4.56 µM
Oc1ccc(Br)cc1-c1nc2cnccn2c1NC1CCCC1	3.04 µM	14.5 µM
Nc1ncnc2c1c(-c1ccc(Oc3ccccc3)cc1)cn2C1CCCC1	6.66 µM	11.3 µM
CCOC(=O)Nc1nc(-c2ccccc2)c(C(=O)c2ccccc2)s1	14.3 µM	> 79 µM (inactive)
CC[C@H](CO)Nc1nc(Nc2cccc(Cl)c2)c2ncn(C(C)C)c2n1	3.53 µM	8.91 µM
Cc1[nH]nc2nc(SCC(=O)NCCC3=CCCCC3)n(-c3ccc(Br)cc3)c(=N)c12	8.27 µM	6.73 µM
COc1ccccc1-c1cc(NC=O)c2ncc(-c3ccc(F)cc3)n2c1	4.08 µM	46.1 µM
Cc1ccc(NC(=O)Nc2nnc(-c3ccncc3)s2)cc1C	3.46 µM	9.39 µM
CC(C)c1nc(NCCO)c(C#N)c2c1CCCC2	5.77 µM	> 79 µM (inactive)
Cc1ccnc(NC(=O)CSc2cc(=O)n(C)c3ccccc23)c1	7.95 µM	39.4 µM

SMILES	IC50 [1]	IC50 (Cytotoxicity)
COc1ccc2[nH]c3c(c2c1)CC(C)NC3=O (stereo not given)	1.3 µM	55.3 µM (inactive)
O=C(Oc1cc2oc(=O)cc(-c3ccccc3)c2cc1Cl)C1CCCCC1	2.22 µM	30.6 µM
COc1cc(NC(=O)c2csc(-c3ccncc3)n2)cc(C(=O)Nc2cccc(C(F)(F)F)c2)c1	4.32 µM	46 µM
Cc1nn(-c2cccc(Cl)c2)c2nc(C(F)(F)F)[nH]c(=O)c12	16.9 µM	27.4 µM
CCC1(O)C(=O)OCc2c1cc1n(c2=O)Cc2cc3cc(O)ccc3nc2-1 (stereo not given)	0.284 µM	1.09 µM
Cc1cccc(N2CCN(C(=O)c3[nH]c(C(F)(F)F)nc3-c3ccccc3)CC2)c1C	17.8 µM	> 79 µM (inactive)
c1csc(Cc2nn3c(-c4ccncc4)nnc3s2)c1	7.94 µM	57 µM (inactive)
C=CCSc1nsc(NC(=O)Nc2cccc(C(C)=O)c2)n1	1.44 µM	6.08 µM
C#CCN(C[C@@H]1[C@@H](OC(=O)NC2CC2)[C@@H](OC(=O)NC2CC2)Cn2c(=O)ccc(=O)n21)S(=O)(=O)c1ccc(C)cc1	2.73 µM	19.2 µM
COc1ccc(-n2nnnc2C(CCc2ccccc2)N2CCC(n3c(=O)[nH]c4ccccc43)CC2)cc1 (stereo not given)	6.25 µM	11.1 µM
O=[N+]([O-])c1ccc(O)c(C2CCCCC2)c1	2.04 µM	3.28 µM
COc1cc2oc(=O)cc(-c3ccc(-c4ccc(N(C)C)cc4)cc3)c2c(OC)c1OC	11.6 µM	39.9 µM
Cc1ccc(C(C(=O)NCc2ccccc2)N(Cc2cccs2)C(=O)c2ccc3c(c2)OCCO3)cc1 (stereo not given)	3.04 µM	3.48 µM
Cc1cnc(NC(=O)CCCc2nc3ccccc3s2)s1	4.23 µM	44.5 µM
CC(=O)Oc1ccccc1C(=O)Oc1ccc(/C=N/n2cnnc2)cc1	inactive	59.5 µM (inactive)
O=C(Nc1nnc(C(F)(F)F)s1)c1ccc(Br)s1	2.28 µM	27.8 µM
O=C(CCl)N(Cc1cc(=O)[nH]c2ccccc12)c1ccccc1	1.48 µM	2.98 µM
CN(C)C=Nc1c(C(=O)c2ccccc2)sc2nccc(N(C)C)c12	10.9 µM	> 79 µM (inactive)
O=C(/C=C/c1cccs1)Nc1cccc(NC(=O)/C=C/c2cccs2)n1	5.98 µM	1.57 µM
O=c1cc(-c2ccccc2Cl)oc2cc(O)cc(O)c12	5.33 µM	55.8 µM (inactive)
